Experimental data taken from paper PMC9315496, “A Comparison of the Photophysical, Electrochemical and Cytotoxic Properties of meso-(2-, 3- and 4-Pyridyl)-BODIPYs and Their Derivatives” (Sensors (Basel, Switzerland), 2022).
Read-outs that look alike come from different tables or passages of the source. Marks after values point to notes of the source that are not given here.

How the values were obtained:
[1] = test system: HEp2 cells; experiment: Phototoxicity (1.5 J/cm^2), Cell Titer Blue; assay type: cell-based; details: Homo sapiens, HEp-2, light or radiation study, light dose 1.5 J/cm^2
Experimental: (§1) Human carcinoma HEp2 cells were obtained from ATCC and maintained in a 75 cm^2 flask (Chemglass) with 1× MEM (Eagle’s minimal essential medium) containing 10% FBS (fetal bovine serum) and 1% antibiotic (penicillin–streptomycin) in a humidified, 5% CO2 incubator at 37 °C. Stock solutions with a concentration of 32 mM in DMSO were prepared for each BODIPY. The stock solution was diluted to the final working concentrations with culture medium. The HEp2 cells were plated at 7500–10,000 cells per well in a Costar 96-well plate and allowed to grow for 24 h. The BODIPY stock solution was diluted to a 200 μM working solution and two-fold serial dilutions were prepared with final concentrations of 200, 100, 50, 25, 12.5, 6.25, and 0 μM. Each BODIPY was incubated for 24 h at 37 °C under 5% CO2. For the dark cytotoxicity experiments, after incubation, excess BODIPY was removed by washing the cells three times with 1× PBS (phosphate-buffered saline) and replacing with media containing 20% Cell Titer Blue (Promega, Madison, WI, USA). The cells were then incubated for additional 24 h at 37 °C under 5% CO2 and the cell toxicity was determined by fluorescence intensity at ex 570/em 615 nm using a FluoStar Optima microplate reader (BMG Labtech, Cary, NC, USA).
For the phototoxicity experiments, after incubation the cells were exposed to a light dose of ~1.5 J/cm^2 generated using a 600 W Quartz Tungsten Halogen lamp (Newport Corporation, Irvine, CA, USA). The cells were exposed for 20 min while the 96-well plate rested on an EchoTherm chilling plate (Torrey Pines Scientific, Carlsbad, CA, USA) set to 5 °C. Following light exposure, the loading media was removed and media containing 20% Cell Titer Blue was added. After incubation for 24 h at 37 °C under 5% CO2, the cell viability was determined as described above.

[2] = UV-vis absorption and emission spectroscopy, relative fluorescence quantum yields; assay type: physicochemical; details: for λabs / λem: room temperature; for Φf (relative fluorescence quantum yield): standard Ru(bpy)Cl2.6H2O (Φf = 0.028) in H2O, λexc = 436 nm; for bathochromic shift of maximum absorption wavelength upon methylation: acetonitrile, experimental
Experimental: UV−vis absorption spectra were collected on a Varian Cary 50 Bio spectrophotometer. Emission spectra were obtained on a PerkinElmer LS55 spectrophotometer, at room temperature. Spectrophotometric grade solvents and quartz cuvettes (1 cm path length) were used. Relative fluorescence quantum yields (Φf) were calculated using rhodamine 6G (Φf = 0.86 in methanol) as reference for the neutral BODIPYs and Ru(bpy)Cl2.6H2O (Φf = 0.028 in water) as the standard for the cationic BODIPYs using the following equation: Φx = Φst × Gradx/Gradst × (ηx/ηst)^2, where the ΦX and ΦST are the quantum yields of the sample and standard, GradX and GradST are the gradients from the plot of integrated fluorescence intensity vs. absorbance, and η represents the refractive index of the solvent (x is for the sample and st for the standard).

[3] = Cyclic voltammetry; assay type: physicochemical; details: for E1/2red, first one-electron reduction / E1/2red, second one-electron reduction / E1/2ox: vs. Fc^+/Fc, acetonitrile, 0.25 M NBu4PF6
Excerpt: Cyclic voltammograms were collected on a Biologic SP-300 potentiostat using a three-electrode setup with a platinum working electrode (2 mm diameter, CH Instruments), platinum counter electrode (2 mm diameter, CH Instruments), and a silver wire pseudo reference-electrode stored in 0.25 M NBu4PF6 in anhydrous acetonitrile and separated from the electrochemical cell by a glass frit. The electrochemical cell was composed of a borosilicate glass scintillation vial with a custom-machined cap. Working electrodes were polished and then pre-treated by cycling between upper and lower boundaries of the electrochemical window for the experiment in a solution containing only the electrolyte. Measurements were taken in a solution of 0.25 M recrystallized NBu4PF6 in dried and degassed anhydrous acetonitrile. BODIPYs were added to 5 mL of electrolyte solution to give a concentration of 1 mM. Each solution also contained 1 mM ferrocene as an internal reference. Solutions were sparged with N2 before each measurement.

[4] = test system: HEp2 cells; experiment: Dark cytotoxicity, Cell Titer Blue; assay type: cell-based; details: Homo sapiens, HEp-2, 24 h incubation, read-out: Dark Toxicity (IC50)
Experimental: as §1

[5] = cited from earlier work

| Stokes Shift ([2]; CH3CN) [nm] | ε (molar extinction coefficient) ([2]; CH3CN) | λabs ([2]; CH3CN) [nm] | λem ([2]; CH3CN) [nm] | Φf (relative fluorescence quantum yield) ([2]; CH3CN) | Stokes Shift ([2]; H2O) [nm] | ε (molar extinction coefficient) ([2]; H2O) | λabs ([2]; H2O) [nm] | λem ([2]; H2O) [nm] | Φf (relative fluorescence quantum yield) ([2]; H2O) | E1/2red, first one-electron reduction ([3]; 100 mV/s) [V] | E1/2red, second one-electron reduction ([3]; 100 mV/s) [V] | bathochromic shift of maximum absorption wavelength upon methylation [2] [nm] | first reduction, more negative than the two-electron reduction in 4catPy [3] [mV] | second reduction, more negative than the two-electron reduction in 4catPy [3] [mV] | E1/2ox ([3]; 100 mV/s, PF6^− counterion) | Structure (SMILES) | IC50 [1] [µM] | IC50 [4] [µM] | other results |
| --- | --- | --- | --- | --- | --- | --- | --- | --- | --- | --- | --- | --- | --- | --- | --- | --- | --- | --- | --- |
| 17 | 19,420 M^−1 cm ^−1 | 530 | 547 | 0.17 ^b | 22 | 21,000 M^−1 cm ^−1 | 555 | 577 | 0.24 | −0.87 | −1.16 |  |  |  |  | CC1=C(Cl)C(C)=[N+]2C1=C(c1cccc[n+]1C)c1c(C)c(Cl)c(C)n1[B-]2(F)F [2catPyCl2, 2,6-Dichloro-8-(N-methyl-2-pyridyl)-1,3,5,7-tetramethyl-BODIPY] | 80 | 80 | Φf (relative fluorescence quantum yield) ([2]; H2O, listed as 2catPyCl2 (I^−)): 0.24 ^b; fluorescence enhancement relative to the non-chlorinated pyridinium BODIPY ([2]; water): over 200 fold; first reduction wave shift positive compared with the unchlorinated BODIPY [3]: 220 mV; second reduction wave shift positive compared with the unchlorinated BODIPY [3]: 130 mV; anodic peak shift positive compared with the corresponding unchlorinated BODIPY ([3]; 100 mV/s): 70 mV; E1/2ox ([3]; value at 10 V/s): +1.10 ^b V |
| 24 | 65,800 M^−1 cm ^−1 | 520 | 544 | 0.13 ^b | 22 | 52,380 M^−1 cm ^−1 | 520 | 542 | 0.001 ^b | −1.09 | −1.29 | 18 | 30 | 230 | ~+0.99 ^a V | CC1=CC(C)=[N+]2C1=C(c1cccc[n+]1C)c1c(C)cc(C)n1[B-]2(F)F [2catPy, 1,3,5,7-Tetramethyl-8-(N-methyl-2-pyridyl)-BODIPY Iodide] | > 100 | > 200 | oxidation potential shift positive compared with 4catPy and 3catPy [3]: 100 mV |
|  |  |  |  |  |  |  |  |  |  |  |  |  |  |  |  | CC/N=c1\cc2oc3cc(NCC)c(C)cc3c(-c3ccccc3C(=O)OCC)c-2cc1C [rhodamine 6G, reference compound] |  |  | Φf of the reference standard ([5]; in methanol): 0.86 |
|  |  |  |  |  |  |  |  |  |  |  |  |  |  |  |  | O.O.O.O.O.O.[Cl-].[Cl-].[Ru+2].c1ccc(-c2ccccn2)nc1.c1ccc(-c2ccccn2)nc1.c1ccc(-c2ccccn2)nc1 [Ru(bpy)Cl2.6H2O, reference compound] |  |  | Φf of the reference standard ([5]; in water): 0.028 |
| 12 | 92,900 M^−1 cm ^−1 | 502 | 514 |  |  |  |  |  |  |  |  |  |  |  |  | CC1=CC(C)=[N+]2C1=C(c1cccnc1)c1c(C)cc(C)n1[B-]2(F)F [3Py] | > 100 | > 200 | Stokes Shift ([2]; CH3OH): 12 nm; labs ([2]; CH3OH): 503 nm; lem ([2]; CH3OH): 515 nm; ε (molar extinction coefficient) ([2]; CH3OH): 98140 M-1 cm -1; Фf (relative fluorescence quantum yield) ([2]; CH3OH, standard rhodamine-6G (Ф = 0.86) in methanol, λexc = 473 nm): 0.34 |
| 22 | 65,460 M^−1 cm ^−1 | 510 | 532 | 0.006 | 20 | 37,320 M^−1 cm ^−1 | 510 | 530 | 0.005 ^b | −1.26 | −1.54 | 8 | 200 | 480 | +0.89 V | CC1=CC(C)=[N+]2C1=C(c1ccc[n+](C)c1)c1c(C)cc(C)n1[B-]2(F)F [3catPy, 1,3,5,7-Tetramethyl-8-(N-methyl-3-pyridyl)-BODIPY Iodide] | > 100 | > 200 | Φf (relative fluorescence quantum yield) ([2]; CH3CN, listed as 3catPy (I^−)): 0.006 ^b |
